Measurements taken from article PMC10412597, “Small molecule branched-chain ketoacid dehydrogenase kinase (BDK) inhibitors with opposing effects on BDK protein levels” (Nature Communications, 2023).

How the values were obtained:
Parameters in all cases: Cerep Bioprint off-target panel, functional receptor agonism or antagonism
[1] = molecular target: T1, Adrenergic Alpha 2b Adrenoceptor (Homo sapiens, UniProt P18089)
T1 construct: gene ADRA2B
T1 sequence (P18089 1-450): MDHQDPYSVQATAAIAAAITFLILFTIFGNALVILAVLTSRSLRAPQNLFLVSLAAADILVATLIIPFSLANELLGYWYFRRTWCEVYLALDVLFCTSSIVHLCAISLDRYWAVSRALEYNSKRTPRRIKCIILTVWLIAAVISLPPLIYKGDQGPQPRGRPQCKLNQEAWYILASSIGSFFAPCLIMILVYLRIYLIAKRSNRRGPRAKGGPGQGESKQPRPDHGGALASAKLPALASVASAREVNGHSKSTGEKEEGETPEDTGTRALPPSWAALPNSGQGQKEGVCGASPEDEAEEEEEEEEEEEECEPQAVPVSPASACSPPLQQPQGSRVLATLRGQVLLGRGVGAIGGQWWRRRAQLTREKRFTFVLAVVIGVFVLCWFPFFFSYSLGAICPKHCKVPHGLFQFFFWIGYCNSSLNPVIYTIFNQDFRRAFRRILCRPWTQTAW
Experimental: (§1) To discover a potent and selective BDK inhibitor, a subset of the Pfizer compound collection was screened. […] Off target activity was assessed in both CEREP and kinase panels (Supplementary Tables 2, 3).

[2] = molecular target: T2, Adrenergic Beta 1 Adrenoceptor (Homo sapiens, UniProt P08588)
T2 construct: gene ADRB1
T2 sequence (P08588 whole entry): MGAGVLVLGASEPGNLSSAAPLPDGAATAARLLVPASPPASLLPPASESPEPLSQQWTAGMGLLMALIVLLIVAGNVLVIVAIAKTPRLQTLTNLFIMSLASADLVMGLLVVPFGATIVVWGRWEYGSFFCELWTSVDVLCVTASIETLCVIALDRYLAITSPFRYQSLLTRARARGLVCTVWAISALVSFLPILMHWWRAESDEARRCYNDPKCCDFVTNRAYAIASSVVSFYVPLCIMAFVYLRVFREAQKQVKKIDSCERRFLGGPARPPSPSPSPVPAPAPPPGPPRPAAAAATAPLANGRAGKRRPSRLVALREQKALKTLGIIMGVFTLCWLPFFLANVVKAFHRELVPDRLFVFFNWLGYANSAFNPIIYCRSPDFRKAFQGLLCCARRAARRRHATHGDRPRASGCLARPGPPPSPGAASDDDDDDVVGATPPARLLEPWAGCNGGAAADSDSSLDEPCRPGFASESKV
Experimental: as §1

[3] = molecular target: T3, Adrenergic Beta 2 Adrenoceptor (Homo sapiens, UniProt P07550)
T3 construct: gene ADRB2
T3 sequence (P07550 whole entry): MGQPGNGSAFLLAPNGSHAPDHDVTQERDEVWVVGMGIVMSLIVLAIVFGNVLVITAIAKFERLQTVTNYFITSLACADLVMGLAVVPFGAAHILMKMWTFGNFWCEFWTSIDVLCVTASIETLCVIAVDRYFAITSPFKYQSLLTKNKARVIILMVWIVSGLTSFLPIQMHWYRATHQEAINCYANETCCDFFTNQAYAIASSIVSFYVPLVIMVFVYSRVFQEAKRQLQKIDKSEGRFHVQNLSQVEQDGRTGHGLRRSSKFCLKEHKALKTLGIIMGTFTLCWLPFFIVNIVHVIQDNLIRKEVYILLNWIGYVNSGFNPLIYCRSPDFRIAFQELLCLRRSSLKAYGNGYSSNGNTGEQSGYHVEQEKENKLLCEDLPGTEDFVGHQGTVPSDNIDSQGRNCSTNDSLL
Experimental: as §1

[4] = molecular target: T4, Cannabinoid CB1 (Homo sapiens, UniProt P21554)
T4 construct: gene CNR1
T4 sequence (P21554 whole entry): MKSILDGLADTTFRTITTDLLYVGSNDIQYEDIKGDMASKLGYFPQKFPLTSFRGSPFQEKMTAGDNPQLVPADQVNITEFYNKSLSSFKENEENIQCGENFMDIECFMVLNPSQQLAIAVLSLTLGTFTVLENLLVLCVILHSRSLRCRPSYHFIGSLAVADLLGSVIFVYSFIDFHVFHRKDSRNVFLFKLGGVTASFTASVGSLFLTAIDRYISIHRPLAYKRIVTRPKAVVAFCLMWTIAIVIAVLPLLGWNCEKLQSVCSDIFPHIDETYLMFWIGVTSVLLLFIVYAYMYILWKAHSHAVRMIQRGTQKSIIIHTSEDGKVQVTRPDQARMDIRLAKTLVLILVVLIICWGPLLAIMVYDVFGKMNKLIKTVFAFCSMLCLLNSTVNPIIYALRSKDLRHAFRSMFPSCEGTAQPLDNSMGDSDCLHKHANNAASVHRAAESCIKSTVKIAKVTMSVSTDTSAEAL
Experimental: as §1

[5] = molecular target: T5, Cholecystokinin 2 (Homo sapiens, UniProt P32239); conditions: agonist
T5 construct: gene CCKBR
T5 sequence (P32239 whole entry): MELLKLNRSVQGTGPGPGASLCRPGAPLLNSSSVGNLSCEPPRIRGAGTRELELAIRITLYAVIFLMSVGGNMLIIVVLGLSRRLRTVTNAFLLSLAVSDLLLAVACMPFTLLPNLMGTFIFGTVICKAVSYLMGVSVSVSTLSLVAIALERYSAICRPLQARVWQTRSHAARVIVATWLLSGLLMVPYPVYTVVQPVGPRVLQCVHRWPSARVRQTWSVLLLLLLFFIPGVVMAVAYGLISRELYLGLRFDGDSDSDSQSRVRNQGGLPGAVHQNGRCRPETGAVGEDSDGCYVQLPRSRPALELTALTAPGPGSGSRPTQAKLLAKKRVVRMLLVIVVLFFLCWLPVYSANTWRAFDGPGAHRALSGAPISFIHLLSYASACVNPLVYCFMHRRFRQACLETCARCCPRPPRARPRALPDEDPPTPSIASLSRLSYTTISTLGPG
Experimental: as §1

[6] = molecular target: T6, Corticotrophin Releasing Factor 1 (CRF1) Receptor (Homo sapiens, UniProt P34998)
T6 construct: gene CRHR1
T6 sequence (P34998 1-415): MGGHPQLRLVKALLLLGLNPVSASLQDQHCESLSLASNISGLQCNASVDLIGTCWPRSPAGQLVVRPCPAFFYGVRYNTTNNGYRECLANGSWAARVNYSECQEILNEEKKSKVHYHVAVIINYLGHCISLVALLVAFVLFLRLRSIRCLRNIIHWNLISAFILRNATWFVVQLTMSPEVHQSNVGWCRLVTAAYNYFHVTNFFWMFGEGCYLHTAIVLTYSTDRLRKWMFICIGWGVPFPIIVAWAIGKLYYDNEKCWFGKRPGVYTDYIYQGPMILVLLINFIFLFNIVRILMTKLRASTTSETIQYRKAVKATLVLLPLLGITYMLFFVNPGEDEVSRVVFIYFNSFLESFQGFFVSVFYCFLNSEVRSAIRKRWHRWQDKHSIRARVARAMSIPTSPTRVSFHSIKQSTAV
Experimental: as §1

[7] = molecular target: T7, Delta Opioid Receptor (Homo sapiens, UniProt P41143); conditions: agonist
T7 construct: gene OPRD1
T7 sequence (P41143 whole entry): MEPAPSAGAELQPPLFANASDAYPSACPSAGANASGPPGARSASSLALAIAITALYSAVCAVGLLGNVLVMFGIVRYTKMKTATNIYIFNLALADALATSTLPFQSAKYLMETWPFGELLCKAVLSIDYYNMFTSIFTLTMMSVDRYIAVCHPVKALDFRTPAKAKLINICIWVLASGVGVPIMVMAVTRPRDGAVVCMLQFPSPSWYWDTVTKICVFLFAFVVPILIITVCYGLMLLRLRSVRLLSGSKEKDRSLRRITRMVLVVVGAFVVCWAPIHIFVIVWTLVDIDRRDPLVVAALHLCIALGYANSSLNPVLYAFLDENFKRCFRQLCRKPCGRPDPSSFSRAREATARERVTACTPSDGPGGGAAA
Experimental: as §1

[8] = molecular target: T8, Histamine H3 (Homo sapiens, UniProt Q9Y5N1); conditions: agonist
T8 construct: gene HRH3
T8 sequence (Q9Y5N1 whole entry): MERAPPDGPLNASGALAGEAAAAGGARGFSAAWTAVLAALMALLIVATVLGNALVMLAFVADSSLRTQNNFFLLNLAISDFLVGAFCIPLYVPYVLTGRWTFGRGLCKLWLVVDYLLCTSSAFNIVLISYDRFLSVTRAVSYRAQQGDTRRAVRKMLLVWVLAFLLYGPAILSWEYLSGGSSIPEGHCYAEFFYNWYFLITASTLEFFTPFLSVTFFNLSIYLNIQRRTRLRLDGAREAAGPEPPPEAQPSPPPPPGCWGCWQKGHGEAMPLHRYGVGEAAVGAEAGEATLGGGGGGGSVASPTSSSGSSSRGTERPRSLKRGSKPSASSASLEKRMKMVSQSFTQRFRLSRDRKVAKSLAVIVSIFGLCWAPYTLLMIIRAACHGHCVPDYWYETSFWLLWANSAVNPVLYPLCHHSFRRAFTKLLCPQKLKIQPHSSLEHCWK
Experimental: as §1

[9] = molecular target: T9, Serotonin 5-HT2b (Homo sapiens, UniProt P41595); conditions: agonist
T9 construct: gene HTR2B
T9 sequence (P41595 whole entry): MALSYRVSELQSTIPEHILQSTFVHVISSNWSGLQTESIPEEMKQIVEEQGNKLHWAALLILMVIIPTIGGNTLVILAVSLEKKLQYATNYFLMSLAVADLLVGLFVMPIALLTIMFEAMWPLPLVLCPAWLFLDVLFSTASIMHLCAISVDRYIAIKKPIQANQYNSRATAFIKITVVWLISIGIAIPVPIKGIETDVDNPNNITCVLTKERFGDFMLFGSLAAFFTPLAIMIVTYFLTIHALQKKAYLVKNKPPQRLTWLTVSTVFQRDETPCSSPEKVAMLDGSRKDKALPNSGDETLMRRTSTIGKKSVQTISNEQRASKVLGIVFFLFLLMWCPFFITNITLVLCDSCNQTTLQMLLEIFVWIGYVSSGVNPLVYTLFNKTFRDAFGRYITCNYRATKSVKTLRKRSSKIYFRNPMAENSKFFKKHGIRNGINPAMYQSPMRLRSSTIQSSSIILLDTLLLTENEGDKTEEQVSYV
Experimental: as §1

[10] = molecular target: T10, Thyrotopin Releasing Hormone 1 (TRH1) Receptor (Homo sapiens, UniProt P34981)
T10 construct: gene TRHR
T10 sequence (P34981 1-398): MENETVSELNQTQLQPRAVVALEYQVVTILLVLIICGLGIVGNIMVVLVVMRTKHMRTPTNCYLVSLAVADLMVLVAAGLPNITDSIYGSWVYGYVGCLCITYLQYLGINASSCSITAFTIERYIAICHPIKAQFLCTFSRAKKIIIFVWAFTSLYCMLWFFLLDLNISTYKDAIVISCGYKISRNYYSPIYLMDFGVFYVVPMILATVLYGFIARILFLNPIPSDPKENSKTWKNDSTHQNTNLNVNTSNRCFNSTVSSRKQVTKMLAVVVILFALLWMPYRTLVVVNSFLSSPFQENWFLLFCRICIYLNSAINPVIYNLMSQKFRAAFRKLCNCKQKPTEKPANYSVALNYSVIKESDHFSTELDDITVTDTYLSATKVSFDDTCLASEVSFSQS
Experimental: as §1

[11] = molecular target: T11, Vasopressin 1a (Homo sapiens, UniProt P37288); conditions: agonist
T11 construct: gene AVPR1A
T11 sequence (P37288 whole entry): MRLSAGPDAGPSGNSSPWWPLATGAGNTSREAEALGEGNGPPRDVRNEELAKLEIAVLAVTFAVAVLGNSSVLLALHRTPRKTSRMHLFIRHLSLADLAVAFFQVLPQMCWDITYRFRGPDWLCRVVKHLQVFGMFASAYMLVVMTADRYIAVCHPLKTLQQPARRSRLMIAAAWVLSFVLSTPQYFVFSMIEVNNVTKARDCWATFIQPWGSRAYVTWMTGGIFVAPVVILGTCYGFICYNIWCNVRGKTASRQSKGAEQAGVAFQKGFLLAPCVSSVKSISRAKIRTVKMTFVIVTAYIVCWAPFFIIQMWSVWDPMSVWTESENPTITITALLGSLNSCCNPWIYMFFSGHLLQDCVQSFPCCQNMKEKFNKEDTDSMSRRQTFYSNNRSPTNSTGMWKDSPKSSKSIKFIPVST
Experimental: as §1

`O=C(O)c1sc2cc(F)sc2c1Cl` [PF-07208254, 3-chloro-5-fluorothieno[3,2-b]thiophene-2-carboxylic acid] was tested, and the “% (agonism) PF-07208254” value ([1]; 100 µM, agonist) was -4%, the “% Inhibition (antagonism) PF-07208254” value ([1]; 100 µM, antagonist) was -2% and the “% (agonism) PF-07208254” value ([2]; 100 µM, agonist) was 2%. For the same compound, the “% Inhibition (antagonism) PF-07208254” value ([2]; 100 µM, antagonist) was 8%, the “% (agonism) PF-07208254” value ([3]; 100 µM, agonist) was -5% and the “% Inhibition (antagonism) PF-07208254” value ([3]; 100 µM, antagonist) was 10%. For the same compound, the “% (agonism) PF-07208254” value ([4]; 100 µM, agonist) was 55%, the “% Inhibition (antagonism) PF-07208254” value ([4]; 100 µM, antagonist) was -10% and the “% (agonism) PF-07208254” value ([5]; 100 µM) was 0%. The “% (agonism) PF-07208254” value ([6]; 100 µM, agonist) was -2%, the “% Inhibition (antagonism) PF-07208254” value ([6]; 100 µM, antagonist) was 39% and the “% (agonism) PF-07208254” value ([7]; 100 µM) was -2%. For the same compound, the “% (agonism) PF-07208254” value ([8]; 100 µM) was 15%, the “% (agonism) PF-07208254” value ([9]; 100 µM) was -5% and the “% (agonism) PF-07208254” value ([10]; 100 µM, agonist) was 4%. The “% Inhibition (antagonism) PF-07208254” value ([10]; 100 µM, antagonist) was -5% and the “% (agonism) PF-07208254” value ([11]; 100 µM) was 16%.

With `CCC1(COc2ccc(-c3csc(-c4ccccc4C(=O)O)n3)cn2)CC1` [PF-07247685, 2-(4-{6-[(1-ethylcyclopropyl)methoxy]pyridin-3-yl}-1,3-thiazol-2-yl)benzoic acid] the “% (agonism) PF-07247685” value ([1]; 10 µM, agonist) was -1%, the “% Inhibition (antagonism) PF-07247685” value ([1]; 10 µM, antagonist) was -1% and the “% (agonism) PF-07247685” value ([2]; 10 µM, agonist) was 6%. For the same compound, the “% Inhibition (antagonism) PF-07247685” value ([2]; 10 µM, antagonist) was 27%, the “% (agonism) PF-07247685” value ([3]; 10 µM, agonist) was -6% and the “% Inhibition (antagonism) PF-07247685” value ([3]; 10 µM, antagonist) was 3%. The “% (agonism) PF-07247685” value ([4]; 10 µM, agonist) was 39%, the “% Inhibition (antagonism) PF-07247685” value ([4]; 10 µM, antagonist) was -4% and the “% (agonism) PF-07247685” value ([5]; 10 µM) was -8%. For the same compound, the “% (agonism) PF-07247685” value ([6]; 10 µM, agonist) was 4%, the “% Inhibition (antagonism) PF-07247685” value ([6]; 10 µM, antagonist) was 11% and the “% (agonism) PF-07247685” value ([7]; 10 µM) was -1%. The “% (agonism) PF-07247685” value ([8]; 10 µM) was 4%, the “% (agonism) PF-07247685” value ([9]; 10 µM) was -5% and the “% (agonism) PF-07247685” value ([10]; 10 µM, agonist) was 4%. The “% Inhibition (antagonism) PF-07247685” value ([10]; 10 µM, antagonist) was 10% and the “% (agonism) PF-07247685” value ([11]; 10 µM) was -1%.
